Test systems include DMS-114; M19-MEL; DLD-1; LXFL 529; HOP-18; SNB-78; XF498; RXF 631; Hs-578T.
Common to all, as to assay: inhibition of tumour cell growth, NCI panel, 48 h

Molecules are shown by their SMILES.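 Assay format: 96-well plates, 48-hour exposure. Here, GI50 denotes the concentration required for 50% inhibition of growth.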 Active and inactive are the calls of the source. No stated cut-off is given here; in the data, active = GI50 up to about 1.1 µM and inactive = higher.

With `CC1(C)CCCC2(C)C3C(O)CC2(C)C(O)C31` (stereo unspecified), the GI50 in the assay with DMS-114, with M19-MEL, in the assay on DLD-1, in the assay with LXFL 529, in the assay on HOP-18 and in the assay on SNB-78 was > 100 µM (inactive) each time. Besides, the GI50 in the assay on XF498 is > 100 µM (inactive).
On to `O=C(Nc1cc(Cl)c(Cl)cc1Cl)C(=O)C(C(=O)c1ccc(Cl)c(Cl)c1)C1OC(=O)c2ccccc21` (stereo unspecified), for which the GI50 with DMS-114 is 13.7 µM (inactive); in the assay on M19-MEL it was 17.6 µM (inactive); in the assay with DLD-1, 8.47 µM (inactive); with LXFL 529 it was 10.9 µM (inactive); in the assay with SNB-78, 31.8 µM (inactive).
As for `CC(C)(C)C1=Nc2c(Br)cc(C(C)(C)C)cc2C(C(F)(F)F)(C(F)(F)F)O1`, the GI50 in the assay with DMS-114 is 31.6 µM (inactive); in the assay with M19-MEL it was 72.6 µM (inactive); in the assay with DLD-1, > 100 µM (inactive); in the assay with LXFL 529 it was 46.7 µM (inactive); with SNB-78, > 100 µM (inactive); in the assay with XF498 it was 19 µM (inactive).
As to `O=c1oc2c3ccc4ccccc4c3n(CCCN3CCCCC3)c2c2ccccc12`, the GI50 was > 100 µM (inactive) in the assay with DMS-114; 63.2 µM (inactive) in the assay on M19-MEL; 25.2 µM (inactive) with DLD-1; 62.7 µM (inactive) in the assay on LXFL 529; > 100 µM (inactive) in the assay with HOP-18; 46.7 µM (inactive) with RXF 631. In the assay with XF498, the GI50 is 64.6 µM (inactive).
As for `O=C1C(=Cc2c(O)cc(O)cc2O)C(=O)c2ccccc21`, the GI50 with DMS-114 is > 100 µM (inactive); in the assay with M19-MEL, > 38.5 µM (inactive); with DLD-1, > 40.6 µM (inactive); in the assay on LXFL 529, > 43.5 µM (inactive); in the assay with HOP-18 it was 27.4 µM (inactive); in the assay on SNB-78, 23.8 µM (inactive).
On to `COC(=O)C1CCCC2(C1)OCCO2` (stereo unspecified), for which the GI50 in the assay on DMS-114, in the assay on M19-MEL, with DLD-1, in the assay on LXFL 529, in the assay with HOP-18 and in the assay with RXF 631 was > 100 µM (inactive) throughout. Besides, the GI50 in the assay with SNB-78 is > 100 µM (inactive).
Turning to `Cc1ccc(S(=O)(=O)N/N=C(/CC(=O)c2c(C)[n+]([O-])c3ccccc3[n+]2[O-])C(=O)Nc2ccc(C)c(C)c2)cc1`, the GI50 in the assay with DMS-114 is 19.6 µM (inactive); in the assay on M19-MEL, 17.9 µM (inactive); in the assay with DLD-1 it was > 100 µM (inactive); in the assay with LXFL 529 it was > 100 µM (inactive); in the assay on HOP-18 it was > 100 µM (inactive); with RXF 631, > 100 µM (inactive). The GI50 in the assay with SNB-78 is > 100 µM (inactive).
As for `Clc1cccc(N2CCN(CCN3CCc4c([nH]c5ccccc45)C3c3cccnc3)CC2)c1` (stereo unspecified), the GI50 was 73.5 µM (inactive) in the assay with DMS-114; > 100 µM (inactive) in the assay on M19-MEL; > 68.9 µM (inactive) in the assay on Hs-578T; 39.4 µM (inactive) in the assay on DLD-1; 63.7 µM (inactive) in the assay with LXFL 529; > 100 µM (inactive) with HOP-18. Moreover, the GI50 in the assay with SNB-78 was > 100 µM (inactive); in the assay on XF498 it was 40.3 µM (inactive).
For the compound `Nc1nc(Cl)cc(NCC(O)CO)n1` (stereo unspecified), the GI50 in the assay with DMS-114, with M19-MEL, in the assay on DLD-1, with LXFL 529, with HOP-18 and in the assay on SNB-78 was > 100 µM (inactive) each time. Moreover, the GI50 in the assay with XF498 is > 100 µM (inactive).
As to `CC1C[C@]2(C)C(NCCN)=Nc3ccccc3[C@@H]2N(C)c2ccccc21` (stereo partly specified), the GI50 in the assay with Hs-578T is 18.3 µM (inactive).
As to `O=C1C=CC(=O)c2ccc(=O)ccc21`, the GI50 in the assay on DMS-114 is 9.16 µM (inactive); in the assay with M19-MEL, 7.55 µM (inactive); in the assay with Hs-578T, 36.6 µM (inactive); with DLD-1 it was 4.34 µM (inactive); with LXFL 529 it was 2.54 µM (inactive); with HOP-18, 19.4 µM (inactive). The figures for the GI50 with RXF 631 and in the assay with SNB-78 were 14.4 µM (inactive) and 25.9 µM (inactive), respectively.
Consider `O=C1c2ccccc2C2(O)N(c3ccccc3)C(=S)N(c3ccccc3)C12O` (stereo unspecified), for which the GI50 in the assay on DMS-114, with M19-MEL, with DLD-1, with LXFL 529, with HOP-18 and with RXF 631 was > 100 µM (inactive) in each case. Also, in the assay on SNB-78, the GI50 was > 100 µM (inactive).
For `Cc1ccccc1/C=C/C(=O)c1ccccc1`, the GI50 with DMS-114 is 20.9 µM (inactive); in the assay with M19-MEL it was 25 µM (inactive); in the assay on DLD-1, 22.4 µM (inactive); in the assay on LXFL 529, 21.6 µM (inactive); with RXF 631, 19.4 µM (inactive); with SNB-78 it was 19.3 µM (inactive). Moreover, the GI50 with XF498 is 17.1 µM (inactive).
As to `O=C(CC1C(=O)Nc2ccccc2S1(=O)=O)Nc1ccc(Cl)cc1` (stereo unspecified), the GI50 with DMS-114 was 13.4 µM (inactive); in the assay with M19-MEL, 24 µM (inactive); with DLD-1, 33.5 µM (inactive); in the assay with LXFL 529, 22.9 µM (inactive); with RXF 631, 27.6 µM (inactive); in the assay on SNB-78 it was 21.7 µM (inactive). Besides, the GI50 in the assay with XF498 was 11.7 µM (inactive).
On to `CCOC(=O)C1([Se]c2ccccc2)CCCC1=O` (stereo unspecified), for which the GI50 in the assay with DMS-114 is 3.83 µM (inactive); in the assay with M19-MEL, 19.7 µM (inactive); in the assay with DLD-1, 16.6 µM (inactive); with LXFL 529 it was 14.8 µM (inactive); in the assay on HOP-18, 20.1 µM (inactive); in the assay with RXF 631 it was 66.5 µM (inactive). Further, the values for the GI50 in the assay on SNB-78 and in the assay with XF498 were 24 µM (inactive) and 16.1 µM (inactive), respectively.
Regarding `COc1ccccc1NC(=O)C1=C(C)NC(C)=C(C(=O)Nc2ccccc2OC)C1C1=CC=COC1`, the GI50 is 7.24 µM (inactive) in the assay on DMS-114; 8.97 µM (inactive) with M19-MEL; 11.5 µM (inactive) in the assay on DLD-1; 11.1 µM (inactive) in the assay with LXFL 529; 28.5 µM (inactive) in the assay with HOP-18; 23.3 µM (inactive) in the assay on SNB-78.
As for `CC1(c2cccc(C3CC4(CCC3=O)OCCCCO4)c2)OCCO1` (stereo unspecified), the GI50 in the assay on DMS-114 was 7.96 µM (inactive); in the assay on M19-MEL, > 100 µM (inactive); in the assay with DLD-1, > 100 µM (inactive); with LXFL 529 it was > 100 µM (inactive); in the assay with HOP-18, > 100 µM (inactive); in the assay with SNB-78 it was > 100 µM (inactive).
Regarding `CN1CCc2cc3c4cc2C1Cc1ccc(cc1)Oc1cc(ccc1O)CC1c2c(cc(O)c(c2O4)O3)CCN1C` (stereo unspecified), the GI50 with DMS-114 was 2.05 µM (inactive); with M19-MEL, 1.78 µM (inactive); in the assay with DLD-1, 3.3 µM (inactive); with LXFL 529, 2.53 µM (inactive); in the assay with HOP-18, 3.52 µM (inactive); in the assay on RXF 631, 1.94 µM (inactive). The GI50 in the assay with SNB-78 was 5.66 µM (inactive); in the assay on XF498, 1.69 µM (inactive).
As to `Cc1ccc(S(=O)(=O)OCC/C(=C\[Si](C)(C)C)c2ccccc2)cc1`, the GI50 in the assay on DMS-114, with M19-MEL, in the assay on DLD-1, in the assay with LXFL 529, with HOP-18 and in the assay on XF498 was > 100 µM (inactive) throughout.
In the case of `CCc1c(OC(C)=O)c2c(NC3OCC(OC(C)=O)C(OC(C)=O)C3OC(C)=O)nc(SC)nc2oc1=O` (stereo unspecified), the GI50 in the assay on M19-MEL, in the assay on DLD-1, in the assay with LXFL 529, in the assay on HOP-18, in the assay on RXF 631 and with SNB-78 was > 100 µM (inactive) in each case. In the assay on XF498, the GI50 was > 100 µM (inactive).
Take `N[C@H](C(=O)O)[C@H]1ON=C(Cl)[C@@H]1O`: the GI50 with DMS-114 is 6.61 µM (inactive); with M19-MEL it was 1.87 µM (inactive); with Hs-578T it was 8.65 µM (inactive); in the assay on DLD-1 it was 1.09 µM (active); in the assay with HOP-18 it was > 360 µM (inactive); in the assay on SNB-78, 28.1 µM (inactive). In the assay on XF498, the GI50 is 59 µM (inactive).
In the case of `COc1ccc(OC)c2cc(C3(C)SCCCS3)ccc12`, the GI50 is 92.5 µM (inactive) with DMS-114; > 100 µM (inactive) in the assay with M19-MEL; > 100 µM (inactive) with DLD-1; > 100 µM (inactive) in the assay with LXFL 529; > 100 µM (inactive) with HOP-18; 45.9 µM (inactive) in the assay with SNB-78. In addition, the GI50 in the assay on XF498 is 61.7 µM (inactive).
Turning to `O=C1N[C@H](C(=O)O)[C@@H](c2ccc(OCc3ccccc3)cc2)O1`, the GI50 in the assay with Hs-578T was 27.5 µM (inactive).
For `O=C(NC1CC1)c1c(O)[nH]c(=S)[nH]c1=O`, the GI50 in the assay with DMS-114, with M19-MEL, in the assay on DLD-1, in the assay on LXFL 529, in the assay with HOP-18 and in the assay on RXF 631 was > 100 µM (inactive) in each case. In the assay with SNB-78, the GI50 was > 100 µM (inactive).
Take `COc1ncn(C2C=C(CO)C(O)C2O)c(=O)n1` (stereo unspecified): the GI50 in the assay on DMS-114, in the assay with DLD-1, with LXFL 529, in the assay with HOP-18 and in the assay on SNB-78 was > 100 µM (inactive) in each case.
With `C[C@H]1CCC2C(OC(=O)[C@@H]2CN(C)C)[C@]2(C)C(=O)C=CC12O` (stereo partly specified), the GI50 in the assay on DMS-114 is 2.93 µM (inactive); with M19-MEL, 4.26 µM (inactive); with Hs-578T, 4.27 µM (inactive); in the assay on DLD-1, 2.99 µM (inactive); with LXFL 529 it was 3.01 µM (inactive); in the assay with HOP-18, 24.2 µM (inactive). The GI50 in the assay with RXF 631 is 1.31 µM (inactive).
For `CCN(CC)CCCNC(=O)c1ccc([N+](=O)[O-])cc1O`, the GI50 in the assay on DMS-114, in the assay with DLD-1, in the assay with LXFL 529, in the assay with RXF 631 and with SNB-78 was > 100 µM (inactive) throughout.
On to `O=C(N/N=C/c1cccc(F)c1)c1ccncc1`, for which the GI50 in the assay with DMS-114, with DLD-1, in the assay on LXFL 529, in the assay with HOP-18 and in the assay with XF498 was > 100 µM (inactive) in each case.
With `Nc1ccc([As](=O)(O)O)cc1` [ARSANILIC ACID], the GI50 in the assay with Hs-578T is > 100 µM (inactive).

Source of the values: ChEMBL document CHEMBL1201862, “PubChem BioAssay data set” (2004).
